Experimental findings from patent US11433138B2, “Nanocarriers and intracellular delivery of same” (Georgia Tech Research Corporation, priority 2016, dated 2022) are described below.

The target in one test is rabbit IgG (IgGR). Briefly: Binding kinetics to biotinylated IgG immobilized on optical biosensors (rabbit IgG). How it is done: (§1) Biotinylated IgG was immobilized onto optical biosensors to enable high throughput kinetic analyses in microplate format. The IgG-binding behavior to the Hex nanocarrier in comparison to soluble SPAB at neutral and acidic pH was assessed.
The subject of the next test is mouse IgG (IgGM). Briefly: Binding kinetics to biotinylated IgG immobilized on optical biosensors (mouse IgG). How it is done: as §1

Usually Kd stands for the concentration at which binding is half-saturated. Low readings indicate higher affinity, high ones lower affinity. “domain B of staphylococcal protein A [SPAB]”: the Kd on rabbit IgG (IgGR) (pH 5.0) was found to be 255 ± 17 nM; at rabbit IgG (IgGR) (pH 7.4), 53 ± 2 nM; on mouse IgG (IgGM) (pH 5.0) it was 470 ± 19 nM; at mouse IgG (IgGM) (pH 7.4), 28.3 ± 2.8 nM. In addition, in the test with mouse IgG (IgGM), the “stronger binding at neutral pH compared to pH 5.0” value stood at 17 fold. Besides, the “affinities towards mouse IgG (in words)” value on mouse IgG (IgGM) (neutral pH and pH 5.0) is on record as “nanomolar”.
